The source of these data is PubChem BioAssay AID330 (DTP/NCI, 2004).

The assay relates to P388 leukemia ip, CD2F1 mice, survival T/C. The experiment in a line: NCI In Vivo Anticancer Drug Screen. Data for tumor model P388 Leukemia (intraperitoneal) in CD2F1 (CDF1) mice. To be noted: endpoint: median survival time, higher = longer survival. In a few lines: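 Mice carrying the transplanted tumor received test compound or vehicle. Survival was recorded in each group, and the value is the treated-group measurement divided by that of the vehicle-treated control group.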

The mark [1] stands for this setting: dose: 60.0 mg/kg/injection, schedule: Q01DX005 (ip), vehicle: saline with Tween-80.

Structures are written as SMILES. “And” between values parts separate entries of the source, which are not always exact repeats. Equal values may be shown once. Inconclusive results and toxic doses are left out.

For `Cc1nc(N)nc(N)c1-c1ccc(Cl)c(Cl)c1`, the T/C was 109 % of control (dose: 1.0 mg/kg/injection, schedule: Q01DX009 (ip), vehicle: saline); 123 % of control (dose: 2.0 mg/kg/injection, schedule: Q01DX009 (ip), vehicle: saline); 163 % of control (dose: 3.0 mg/kg/injection, schedule: Q01DX009 (ip), vehicle: saline with Tween-80); 98 % of control (dose: 4.0 mg/kg/injection, schedule: Q01DX009 (ip), vehicle: saline); 104 % of control (dose: 4.0 mg/kg/injection, schedule: Q04DX002 (ip), vehicle: saline with Tween-80); 86 % of control (dose: 6.0 mg/kg/injection, schedule: Q01DX009 (ip), vehicle: saline with Tween-80). Further, the T/C was 104 % of control (dose: 6.0 mg/kg/injection, schedule: Q04DX002 (ip), vehicle: saline with Tween-80); 120 % of control (dose: 6.25 mg/kg/injection, schedule: Q04DX003 (ip), vehicle: saline with Tween-80); 98 % of control (dose: 8.0 mg/kg/injection, schedule: Q01DX009 (ip), vehicle: saline); 99 % of control (dose: 8.0 mg/kg/injection, schedule: Q04DX002 (ip), vehicle: saline with Tween-80); 107 % of control (dose: 10.0 mg/kg/injection, schedule: Q04DX002 (ip), vehicle: saline with Tween-80); 123 % of control (dose: 12.0 mg/kg/injection, schedule: Q04DX002 (ip), vehicle: saline with Tween-80). The T/C is 99 % of control (dose: 20.0 mg/kg/injection, schedule: Q04DX002 (ip), vehicle: saline); 155 % of control (dose: 25.0 mg/kg/injection, schedule: Q04DX003 (ip), vehicle: saline with Tween-80); 107 % of control (dose: 30.0 mg/kg/injection, schedule: Q04DX002 (ip), vehicle: saline); 119 % of control (dose: 40.0 mg/kg/injection, schedule: Q04DX002 (ip), vehicle: saline).
In the case of `CCCCCCCCCCCC(=O)NC1CC(O[C@H]2C[C@](O)(C(C)=O)Cc3c(O)c4c(c(O)c32)C(=O)c2c(OC)cccc2C4=O)OC(C)C1O` (some centres undefined), the T/C reads like this: (dose: 0.75 mg/kg/injection, schedule: Q01DX009 (ip), vehicle: other) 119 % of control; (dose: 2.0 mg/kg/injection, schedule: Q04DX003 (ip), vehicle: other) 91 % of control; (dose: 4.0 mg/kg/injection, schedule: Q04DX003 (ip), vehicle: other) 107 % of control; (dose: 6.0 mg/kg/injection, schedule: Q01DX009 (ip), vehicle: other) 150 % of control; (dose: 8.0 mg/kg/injection, schedule: Q04DX003 (ip), vehicle: other) 98 % of control; (dose: 12.0 mg/kg/injection, schedule: Q01DX009 (ip), vehicle: other) 158 % of control. In addition, the T/C is 102 % of control and 111 % of control (dose: 16.0 mg/kg/injection, schedule: Q04DX003 (ip), vehicle: other); 114 % of control and 120 % of control (dose: 32.0 mg/kg/injection, schedule: Q04DX003 (ip), vehicle: other); 120 % of control (dose: 64.0 mg/kg/injection, schedule: Q04DX003 (ip), vehicle: other); 123 % of control (dose: 128.0 mg/kg/injection, schedule: Q04DX003 (ip), vehicle: other); 100 % of control (dose: 256.0 mg/kg/injection, schedule: Q04DX003 (ip), vehicle: other).
`CC1C(C(=O)NCC(c2ccccc2)c2ccccc2)CC2CCCCN21` (centres undefined): the T/C is, setting by setting: (dose: 15.0 mg/kg/injection, schedule: Q01DX005 (ip), vehicle: saline with Tween-80) 96 % of control; (dose: 30.0 mg/kg/injection, schedule: Q01DX005 (ip), vehicle: saline with Tween-80) 92 % of control; under setting [1], 91 % of control and 92 % of control.
In the case of `CC(=O)NC1CCCCC1C1CCC([N+](=O)[O-])CC1` (centres undefined), the T/C (dose: 50.0 mg/kg/injection, schedule: Q01DX005 (ip), vehicle: saline with Tween-80) was 101 % of control; the T/C (dose: 100.0 mg/kg/injection, schedule: Q01DX005 (ip), vehicle: saline with Tween-80) was 99 % of control; the T/C (dose: 200.0 mg/kg/injection, schedule: Q01DX005 (ip), vehicle: saline with Tween-80) is 99 % of control.
With `CCOC(=O)/C(C#N)=C/NCC1CC1`, the T/C reads like this: (dose: 60.0 mg/kg/injection, schedule: Q01DX005 (ip), vehicle: Klucel (hydroxypropylcellulose) (HPC)) 102 % of control; (dose: 120.0 mg/kg/injection, schedule: Q01DX005 (ip), vehicle: Klucel (hydroxypropylcellulose) (HPC)) 98 % of control; (dose: 240.0 mg/kg/injection, schedule: Q01DX005 (ip), vehicle: Klucel (hydroxypropylcellulose) (HPC)) 98 % of control.
For the compound `COC1=C(C)[C@@H]2CC(=O)O[C@@H]3C[C@H]4[C@H](C)C[C@H](OC5OC(CO)C(O)C(O)C5O)C(=O)[C@]4(C)[C@@H](C1=O)[C@@]32C` (some centres undefined), the T/C (dose: 5.0 mg/kg/injection, schedule: Q01DX005 (ip), vehicle: Klucel (hydroxypropylcellulose) (HPC)) is 103 % of control; the T/C (dose: 10.0 mg/kg/injection, schedule: Q01DX005 (ip), vehicle: Klucel (hydroxypropylcellulose) (HPC)) is 107 % of control; the T/C (dose: 20.0 mg/kg/injection, schedule: Q01DX005 (ip), vehicle: Klucel (hydroxypropylcellulose) (HPC)) is 103 % of control.
Turning to `COC(=O)[C@H]1[C@H]2CCOC1(c1cc(OC)c(OC)c(OC)c1)c1cc3c(cc1[C@H]2O)OCO3`, the T/C reads like this: (dose: 4.5 mg/kg/injection, schedule: Q01DX009 (ip), vehicle: Klucel (hydroxypropylcellulose) (HPC)) 102 % of control; (dose: 9.0 mg/kg/injection, schedule: Q01DX009 (ip), vehicle: Klucel (hydroxypropylcellulose) (HPC)) 104 % of control; (dose: 18.0 mg/kg/injection, schedule: Q01DX009 (ip), vehicle: Klucel (hydroxypropylcellulose) (HPC)) 96 % of control; (dose: 36.0 mg/kg/injection, schedule: Q01DX009 (ip), vehicle: Klucel (hydroxypropylcellulose) (HPC)) 100 % of control.
Take `COc1ccc(/C=C/C(=O)c2ccc3c(c2)OCO3)cc1OC`: the T/C (dose: 12.5 mg/kg/injection, schedule: Q01DX009 (ip), vehicle: saline with Tween-80) was 98 % of control; the T/C (dose: 25.0 mg/kg/injection, schedule: Q01DX009 (ip), vehicle: saline with Tween-80) was 98 % of control and 100 % of control; the T/C (dose: 50.0 mg/kg/injection, schedule: Q01DX009 (ip), vehicle: saline with Tween-80) was 99 % of control and 101 % of control; the T/C (dose: 100.0 mg/kg/injection, schedule: Q01DX009 (ip), vehicle: saline with Tween-80) is 100 % of control and 94 % of control; the T/C (dose: 200.0 mg/kg/injection, schedule: Q01DX009 (ip), vehicle: saline with Tween-80) is 103 % of control and 93 % of control; the T/C (dose: 200.0 mg/kg/injection, schedule: Q04DX003 (ip), vehicle: saline with Tween-80) is 109 % of control. In addition, the T/C (dose: 300.0 mg/kg/injection, schedule: Q01DX009 (ip), vehicle: saline with Tween-80) was 93 % of control; the T/C (dose: 400.0 mg/kg/injection, schedule: Q01DX009 (ip), vehicle: saline with Tween-80) was 100 % of control; the T/C (dose: 400.0 mg/kg/injection, schedule: Q04DX003 (ip), vehicle: saline with Tween-80) was 109 % of control.
`Oc1ccc(C/C=C/c2ccccc2)cc1O`: the T/C by setting is: (dose: 2.5 mg/kg/injection, schedule: Q01DX009 (ip), vehicle: saline + alcohol) 104 % of control; (dose: 5.0 mg/kg/injection, schedule: Q01DX009 (ip), vehicle: saline + alcohol) 104 % of control; (dose: 10.0 mg/kg/injection, schedule: Q01DX009 (ip), vehicle: saline + alcohol) 101 % of control.
Turning to `N#CC(C#N)=C(O)/C(=C/c1ccc(Cl)cc1Cl)NC(=O)c1ccccc1`, the T/C is 107 % of control under setting [1]; 98 % of control (dose: 120.0 mg/kg/injection, schedule: Q01DX005 (ip), vehicle: saline with Tween-80); 100 % of control (dose: 240.0 mg/kg/injection, schedule: Q01DX005 (ip), vehicle: saline with Tween-80).
With `COC1OC(CO)C(O)C(O)C1N1C(=O)c2ccccc2C1=O` (centres undefined), the T/C (dose: 50.0 mg/kg/injection, schedule: Q01DX005 (ip), vehicle: Klucel (hydroxypropylcellulose) (HPC)) is 100 % of control; the T/C (dose: 50.0 mg/kg/injection, schedule: Q01DX005 (ip), vehicle: saline) was 97 % of control; the T/C (dose: 100.0 mg/kg/injection, schedule: Q01DX005 (ip), vehicle: Klucel (hydroxypropylcellulose) (HPC)) is 98 % of control; the T/C (dose: 100.0 mg/kg/injection, schedule: Q01DX005 (ip), vehicle: saline) is 97 % of control; the T/C (dose: 200.0 mg/kg/injection, schedule: Q01DX005 (ip), vehicle: Klucel (hydroxypropylcellulose) (HPC)) was 97 % of control; the T/C (dose: 200.0 mg/kg/injection, schedule: Q01DX005 (ip), vehicle: saline) was 101 % of control.
